SMILES strings stand for the structures. The source made the active and inactive calls.

One experiment concerns Streptococcus. Description: Luminescence Microorganism-Based Dose Response Follow up to Identify Compounds Cytotoxic to Streptococcus. [Related pubchem assays: 1677 (Project Summary), 1915, 1914, 1902 (Retest at Dose), 1900 (Counter Screen), 1662 (Primary HTS)]. The format is functional, organism-based.
For experiment [1], the target named is T1, Hexokinase HKDC1 (Homo sapiens, UniProt Q2TB90).
T1 sequence (Q2TB90 whole entry): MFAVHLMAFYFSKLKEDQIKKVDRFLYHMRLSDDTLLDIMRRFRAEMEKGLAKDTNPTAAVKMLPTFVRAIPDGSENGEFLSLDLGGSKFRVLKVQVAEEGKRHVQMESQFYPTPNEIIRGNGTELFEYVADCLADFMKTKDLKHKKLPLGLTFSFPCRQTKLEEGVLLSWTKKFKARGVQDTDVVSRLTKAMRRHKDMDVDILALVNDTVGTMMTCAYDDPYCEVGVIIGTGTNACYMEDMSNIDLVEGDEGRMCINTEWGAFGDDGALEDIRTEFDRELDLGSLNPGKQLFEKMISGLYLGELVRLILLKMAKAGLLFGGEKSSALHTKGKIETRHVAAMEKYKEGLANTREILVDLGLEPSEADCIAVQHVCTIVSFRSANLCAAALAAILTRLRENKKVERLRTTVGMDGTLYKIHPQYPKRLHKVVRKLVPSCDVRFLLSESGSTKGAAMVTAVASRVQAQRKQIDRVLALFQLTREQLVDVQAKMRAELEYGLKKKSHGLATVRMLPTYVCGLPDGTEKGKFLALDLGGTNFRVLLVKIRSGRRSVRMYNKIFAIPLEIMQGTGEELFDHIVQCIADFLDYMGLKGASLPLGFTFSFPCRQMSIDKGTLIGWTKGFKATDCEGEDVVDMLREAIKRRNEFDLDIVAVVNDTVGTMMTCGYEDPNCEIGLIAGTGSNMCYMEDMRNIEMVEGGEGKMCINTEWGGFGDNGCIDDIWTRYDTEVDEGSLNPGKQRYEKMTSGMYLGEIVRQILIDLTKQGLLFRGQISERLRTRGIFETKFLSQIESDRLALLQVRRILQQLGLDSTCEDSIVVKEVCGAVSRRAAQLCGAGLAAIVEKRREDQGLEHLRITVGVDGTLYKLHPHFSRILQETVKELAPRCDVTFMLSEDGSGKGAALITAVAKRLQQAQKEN
The experiment can be described thus: HKDC1 hexokinase inhibitors, dose response, biochemical, W721R variant (AID 504729). The experiment is classed as functional.

The target in experiment [2] is T1, Hexokinase HKDC1. Description: SAR analysis of small molecule inhibitors of hexokinase domain containing I (HKDC1). [Related pubchem assays (depositor defined):AID493160, AID493190]. The experiment is classed as functional.
Another experiment concerns the target T2, Hexokinase-1 (Homo sapiens, UniProt P19367).
T2 sequence (P19367 whole entry): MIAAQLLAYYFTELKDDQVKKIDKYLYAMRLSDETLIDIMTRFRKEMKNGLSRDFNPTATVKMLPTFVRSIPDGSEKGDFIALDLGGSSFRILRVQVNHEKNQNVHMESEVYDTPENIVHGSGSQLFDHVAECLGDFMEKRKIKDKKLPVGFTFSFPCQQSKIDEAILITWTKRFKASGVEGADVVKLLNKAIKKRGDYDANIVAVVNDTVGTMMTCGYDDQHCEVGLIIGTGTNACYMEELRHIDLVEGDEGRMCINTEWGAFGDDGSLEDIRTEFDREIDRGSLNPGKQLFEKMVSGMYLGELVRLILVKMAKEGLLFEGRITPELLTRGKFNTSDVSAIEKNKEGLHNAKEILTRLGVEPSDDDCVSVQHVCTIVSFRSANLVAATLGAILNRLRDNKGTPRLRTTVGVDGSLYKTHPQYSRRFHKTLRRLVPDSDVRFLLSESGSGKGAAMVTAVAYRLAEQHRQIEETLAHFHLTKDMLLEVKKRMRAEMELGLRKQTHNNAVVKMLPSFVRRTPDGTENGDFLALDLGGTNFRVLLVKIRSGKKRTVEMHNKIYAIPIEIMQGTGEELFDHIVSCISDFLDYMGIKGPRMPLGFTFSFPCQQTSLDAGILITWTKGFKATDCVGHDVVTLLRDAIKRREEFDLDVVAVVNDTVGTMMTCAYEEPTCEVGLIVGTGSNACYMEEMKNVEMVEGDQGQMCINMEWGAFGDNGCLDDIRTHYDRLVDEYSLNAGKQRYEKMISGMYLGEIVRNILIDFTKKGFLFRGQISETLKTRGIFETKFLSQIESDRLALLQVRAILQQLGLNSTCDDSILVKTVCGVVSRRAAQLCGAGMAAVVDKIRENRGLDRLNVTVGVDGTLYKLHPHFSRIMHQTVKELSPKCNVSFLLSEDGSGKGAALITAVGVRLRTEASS
The experiment can be described thus: SAR analysis of small molecule inhibitors of hexokinase domain containing I (HKDC1) in the hexokinase 1 selectivity assay. [Related pubchem assays (depositor defined):AID493160, AID493190]. The format is functional.

The test system of experiment [3] is HEK293. Description: Cytotoxicity assay in HEK293 cells. [Related pubchem assays (depositor defined):AID1266, AID1269, AID1270, AID1271, AID1280, AID1281, AID1282, AID1283, AID1287, AID1289, AID1290, AID1291, AID1292, AID1293, AID1294, AID1295, AID1299, AID1302, AID1364, AID1365, AID1366, AID1367, AID1369, AID1370, AID1371, AID1372, AID1373, AID1374, AID1375, AID1384 …. The format is functional, cell-based. The conditions noted are these: Homo sapiens.

The target in experiment [4] is Luciferin 4-monooxygenase (Photinus pyralis, UniProt P08659). Description: In vitro luciferase assay using purified luciferase. [Related pubchem assays: 1299, 1270, 1295, 1375, 1287, 1281, 1293, 1291, 1289, 1280, 465, 1364, 1282, 1372, 1365, 1370, 1367, 1366, 1266, 1373, 1292, 1290, 1302, 1371, 1283, 1271, 1294, 1374, 1368, 1369 ].
Experiment [5] concerns HEK293. The experiment can be described thus: PMA/Ionomycin-induced IL-8 production in HEK293- NF-kB-Luc stable cells. [Related pubchem assays: 1299, 1295, 1375, 1287, 1281, 1293, 1291, 1289, 1280, 465, 1364, 1282, 1372, 1365, 1367, 1366, 1266, 1269, 1373, 1292, 1290, 1302, 1371, 1283, 1271, 1294, 1374, 1368, 1369 ]. The format is functional, cell-based. The conditions noted are these: Homo sapiens.

Experiment [6] concerns HEK293. Description: TNF Induced NF-kB Luciferase in 293-NF-kB-Luc Stable Cells. [Related pubchem assays: 1266, 1299, 1269, 1373, 1292, 1290, 1302, 1371, 1283, 1270, 1295, 1271, 1375, 1294, 1374, 1281, 1293, 1291, 1289, 1280, 465, 1368, 1364, 1282, 1372, 1365, 1369, 1370, 1367, 1366 ]. The experiment is classed as functional, cell-based. The conditions noted are these: Homo sapiens.

Experiment [7] relates to HEK293. The experiment can be described thus: PMA/Ionomycin induced NF-kB luciferase assay in 293- NF-kB-Luc stable cells. [Related pubchem assays: 1299, 1270, 1295, 1375, 1287, 1281, 1293, 1291, 1289, 1280, 465, 1364, 1282, 1372, 1365, 1370, 1367, 1366, 1269, 1373, 1292, 1290, 1302, 1371, 1283, 1271, 1294, 1374, 1368, 1369 ]. The format is functional, cell-based. The conditions noted are these: Homo sapiens.

In a further experiment the target is Troponin, cardiac muscle (Homo sapiens, UniProt P19429+P45379+P63316). Description: Fluorescence-based biochemical high throughput dose response assay for activators of the calcium sensitivity of cardiac Regulated Thin Filaments (RTF). [Related pubchem assays (depositor defined):AID493008, AID493018, AID504382, AID504383]. The format is protein-complex assay.

A further experiment concerns the target T3, Insulin-degrading enzyme (Homo sapiens, UniProt P14735).
T3 sequence (P14735 whole entry): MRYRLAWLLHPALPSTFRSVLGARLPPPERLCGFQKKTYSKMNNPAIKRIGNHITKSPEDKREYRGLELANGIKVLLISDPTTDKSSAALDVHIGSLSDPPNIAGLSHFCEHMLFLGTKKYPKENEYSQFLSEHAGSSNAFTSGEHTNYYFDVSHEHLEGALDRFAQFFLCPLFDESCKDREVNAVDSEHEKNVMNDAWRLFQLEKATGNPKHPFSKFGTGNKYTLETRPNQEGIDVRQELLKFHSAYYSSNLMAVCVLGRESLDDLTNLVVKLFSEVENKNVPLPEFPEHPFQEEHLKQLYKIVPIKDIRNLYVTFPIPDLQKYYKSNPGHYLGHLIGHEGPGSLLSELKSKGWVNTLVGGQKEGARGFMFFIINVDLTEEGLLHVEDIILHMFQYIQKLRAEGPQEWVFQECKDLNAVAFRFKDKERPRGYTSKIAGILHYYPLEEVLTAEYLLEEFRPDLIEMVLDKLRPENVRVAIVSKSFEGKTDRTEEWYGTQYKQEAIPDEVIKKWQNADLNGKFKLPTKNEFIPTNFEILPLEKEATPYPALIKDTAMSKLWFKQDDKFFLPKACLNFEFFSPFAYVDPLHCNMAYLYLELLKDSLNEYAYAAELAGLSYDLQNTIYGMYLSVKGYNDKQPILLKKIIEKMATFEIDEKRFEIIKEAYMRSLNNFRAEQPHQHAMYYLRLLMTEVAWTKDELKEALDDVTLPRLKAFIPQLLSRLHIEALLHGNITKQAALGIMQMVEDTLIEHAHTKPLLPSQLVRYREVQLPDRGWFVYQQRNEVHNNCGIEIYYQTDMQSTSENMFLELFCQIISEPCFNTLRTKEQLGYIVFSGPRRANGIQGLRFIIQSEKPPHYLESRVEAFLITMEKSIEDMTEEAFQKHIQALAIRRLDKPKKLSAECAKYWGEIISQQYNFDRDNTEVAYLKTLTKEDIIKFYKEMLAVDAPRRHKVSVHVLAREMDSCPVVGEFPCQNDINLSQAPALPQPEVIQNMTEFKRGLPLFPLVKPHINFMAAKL
Description: Dose Response: Fluorescence polarization-based cell-based high throughput dose response assay for inhibitors of insulin-degrading enzyme (IDE). [Related pubchem assays: 434962 (Primary screen (IDE inhibitors in singlicate)), 449730 (Counterscreen (Cytotoxicity in triplicate)), 435028 (Confirmation (IDE inhibitors in triplicate)), 434984 (Summary …. The format is functional. On the technique in general: In fluorescence polarisation assays a small probe gives low polarisation when free and higher when bound to something large.

Experiment [8] in a line: Counterscreen for IDE inhibitors: Luminescence-based cell-based high throughput dose response assay to identify compounds that are cytotoxic to HEK cells. [Related pubchem assays: 434962 (Primary screen (IDE inhibitors in singlicate)), 449730 (Counterscreen (Cytotoxicity in triplicate)), 435028 (Confirmation (IDE inhibitors in triplicate)) …. The conditions noted are these: HEK293. The format is functional. A general note: The purpose of a counterscreen is to sort out artefacts and off-target activity.

Experiment [9] in a line: enhancers of respiration in Yfh1-depleted yeast, dose response, Friedreich's ataxia, plus single-dose screen (AID 1465).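 Note: yeast depleted of Yfh1p frataxin homolog grown on glycerol needing respiration; WST-1 tetrazolium dye reduction as measure of cellular dehydrogenase metabolic activity.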 The format is functional.

Luciferin 4-monooxygenase, sequence (P08659 whole entry): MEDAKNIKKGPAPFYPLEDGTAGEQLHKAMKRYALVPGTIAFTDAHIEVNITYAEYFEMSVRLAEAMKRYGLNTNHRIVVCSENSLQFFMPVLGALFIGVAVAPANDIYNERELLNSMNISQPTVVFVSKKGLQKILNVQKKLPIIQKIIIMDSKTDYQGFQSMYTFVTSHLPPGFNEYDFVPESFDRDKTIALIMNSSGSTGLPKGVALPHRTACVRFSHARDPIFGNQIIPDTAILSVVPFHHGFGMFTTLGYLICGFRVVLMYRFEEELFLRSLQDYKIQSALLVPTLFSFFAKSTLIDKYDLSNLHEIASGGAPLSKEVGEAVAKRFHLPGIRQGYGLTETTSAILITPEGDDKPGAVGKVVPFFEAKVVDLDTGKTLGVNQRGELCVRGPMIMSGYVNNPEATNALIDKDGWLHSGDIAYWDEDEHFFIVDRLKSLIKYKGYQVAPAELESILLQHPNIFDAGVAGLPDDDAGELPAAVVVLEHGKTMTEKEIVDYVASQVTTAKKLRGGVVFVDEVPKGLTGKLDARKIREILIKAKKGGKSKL

With `O=C(CSc1cccs1)N1c2ccccc2Sc2ccccc21`, the EC50 – broadly, the concentration that produces a half-maximal response – in the experiment with Streptococcus is recorded as > 500 µM (not active).
In the case of `Cc1cc2nnc(SCC(=O)Nc3cc(S(=O)(=O)N4CCOCC4)ccc3Cl)n2c2ccccc12`, the IC50 (in general, the midpoint of a concentration-inhibition curve) on Hexokinase HKDC1 [1] is 3.16 µM (active); at Hexokinase HKDC1 [2] it was 3.39 µM (active); on Hexokinase-1, 3.76 µM (active).
In the case of `O=C(NC1CCCCCC1)c1ccc([N+](=O)[O-])o1`, the EC50 in the experiment with HEK293 [3] was > 8 µM (inactive); in experiment [4], > 8 µM (not active); with HEK293 [5], 4.02 µM (not active); in the experiment with HEK293 [6], > 8 µM (not active); in the experiment with HEK293 [7], 3.29 µM (active).
On to `CCOC(=O)/C(=C/C1=CC(=C/N(C)C)/C(=O)O1)C(C)=O`, for which the EC50 is 7.74 µM (active) on Troponin, cardiac muscle and > 100 µM (active) in experiment [9]. Also, the IC50 against Insulin-degrading enzyme was 22.1 µM (not active); in experiment [8] it was > 55.7 µM (not active).

The record behind these values is ChEMBL document CHEMBL1201862, “PubChem BioAssay data set” (2004).
